# Literature values in US20110091544A1 (priority 2009, published 2011).
# Where two headings read alike, the source gives them in different places.
# Legend:
# [1] = 0.2 mg/kg; 30 min after premedication; children
# patients = details: 7.5 mg; at 30 and 60 min after administration
# [2] = system: pediatric patients undergoing outpatient surgery; details: in vivo
# acute seizures = details: nasal
# [3] = system: children scheduled for day surgery
# [4] = system: 61-70 year old patients scheduled for ophthalmic surgery; details: 200 mcg sublingual
# [5] = not given; remark: listed apart in the source
# healthy children = details: oral 0.025 mg/kg, children aged 6 to 9 years
# [6] = system: healthy young subjects and healthy elderly subjects; details: 125 mcg and 250 mcg
# [7] = 250 mcg or 375 mcg sublingual
# [8] = not given; remark: listed apart in the source
# dental outpatients = details: in vivo
smiles,measurement,setting,value
"Cc1ncc2n1-c1ccc(Cl)cc1C(c1ccccc1F)=NC2 [midazolam, 8-chloro-6-(2-fluorophenyl)-1-methyl-4H-imidazo[1,5-a][1,4]benzodiazepine]","midazolam level, sublingual group versus nasal group",[1],statistically significantly higher
same,"sedation scores, sublingual group versus oral group",patients,higher
same,children who had not previously cried who cried on administration,[2],71%
same,patients who experienced nasal irritation,[2],20 patients
same,treatment of acute seizures,acute seizures,effective
same,children showing satisfactory sedation at 15 min after administration,"[3]; 0.25 mg/kg sublingual, P=0.02",28%
same,children showing satisfactory sedation at 15 min after administration,"[3]; 0.5 mg/kg sublingual, P<0.001",52%
same,children showing satisfactory sedation at 15 min after administration,"[3]; 0.75 mg/kg sublingual, P<0.001",64%
same,maximum plasma concentrations,15 mg oral dose,70 to 120 ng/mL
same,time to maximum plasma concentrations,15 mg oral dose,within one hour
same,prolongation of plasma half-life,adults greater than 60 years,up to 3 times
same,plasma half-life,orally administered,1.5 to 5 h
same,oral bioavailability,with a broad range,approximately 36%
"Cc1nnc2n1-c1ccc(Cl)cc1C(c1ccccc1Cl)=NC2 [triazolam, 8-chloro-6-(o-chlorophenyl)-1-methyl-4H-s-triazolo-[4,3-alpha][1,4]benzodiazepine]",depth of sedation compared with 10 mg oral diazepam,[4],deeper sedation
same,time at which sedation developed after administration,[4],60 to 90 min
same,elimination half-life,[5]; 500 mcg oral,3.7 h
same,mean total area under the curve,[5]; 500 mcg oral,22.6 ng·h/mL
same,peak plasma concentration,[5]; 500 mcg oral,3.9 ng/mL
same,time of peak concentration,[5]; 500 mcg oral,1.25 h
same,elimination half-life,[5]; 500 mcg sublingual,4.1 h
same,mean total area under the curve,[5]; 500 mcg sublingual,28.9 ng·h/mL
same,peak plasma concentration,[5]; 500 mcg sublingual,4.7 ng/mL
same,time of peak concentration,[5]; 500 mcg sublingual,1.22 h
same,bioavailability greater than oral,"[5]; 500 mcg sublingual versus oral, average",28%
same,time to peak plasma concentration,healthy children,74 ± 25 min
same,peak plasma concentration,healthy children; mean+/−SD,8.5 ± 3.0 ng/mL
same,"sedation and psychomotor performance, healthy elderly versus young persons at the same dose",[6],greater degree of sedation and greater impairment of psychomotor performance
same,"Cmax, range",[7]; children,4.0 to 8.2 ng/mL
same,"Tmax, range",[7]; children,30 to 120 min
same,"elimination half-life, range",[7]; children,51 to 140 min
same,Cmax,"[7]; children 64-98 months old, mean+/−SD",4.9 ± 2.0 ng/mL
same,Tmax,"[7]; children, mean+/−SD",75 ± 32 min
same,elimination half-life,"[7]; children, mean+/−SD",91 ± 32 min
same,increase in Cmax,[8]; elderly versus young adults,50%
same,Tmax,[8]; no change elderly versus young adults,54 min
same,plasma half-life,[8]; orally administered,1.5 to 5.5 h
same,higher peak plasma level,[8]; sublingual compared with oral administration,20%
same,higher bioavailability,dental outpatients,28%
same,anxiety and pain at 15 minutes intraoperatively,dental outpatients; po,significantly less anxiety and pain
